Assay results reported in PMC10692721, “Drug discovery for heart failure targeting myosin-binding protein C” (The Journal of Biological Chemistry, 2023).
*1 amine or outer side, *2 acyl side, *3 side chain or, on linkers, in order; H or OH if unused. Where a SMILES comes first, the peptide text is derived from it. Bridges are numbered along the chain shown (N, C = ends). [ ]: non-standard residue; d: D form. The star is where a group is joined. Orn(4R-OH,5R-OH) = O=C([C@H](C[C@@H](O)[C@@H](O)N[*:3])N[*:1])[*:2]; Tetradecanoyl(10R,12S-Me2) = CC[C@H](C)C[C@H](C)CCCCCCCCC(=O)*; hTyr(3S-OH,4S-OH) = N[C@H](C(=O)O)[C@H](O)[C@@H](O)c1ccc(O)cc1; Gln(3R-OH) = NC(=O)C[C@@H](O)[C@H](N)C(=O)O; Pro(3S-OH) = O=C(O)[C@H]1NCC[C@@H]1O; Hyp = O=C(O)[C@@H]1C[C@@H](O)CN1

What was measured:
TMR-cC0-C2 = assay: Selleck library HTS, 532 nm excitation (FLT of TMR-cC0-C2 in presence of FMAL-actin); type: binding, human
[1] = tested on: FMAL-actin plus TMR-cC0-C2; assay: Selleck library HTS, 473 nm excitation (FLT of FMAL-actin with TMR-cC0-C2, FLT-FRET); type: binding, human
Procedure, shortened: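 Donor fluorescence lifetime was then recorded. Waveforms were fit to a single exponential, and ΔFLT was obtained after a moving-median plate-gradient correction (half-row window), rescaled by the median DMSO lifetime.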

[2] = robust z-score, hit threshold ±4, 30 μM compound

## CC[C@H](C)C[C@H](C)CCCCCCCCC(=O)N[C@H]1C[C@@H](O)[C@@H](O)NC(=O)[C@@H]2[C@@H](O)CCN2C(=O)[C@H]([C@H](O)CC(N)=O)NC(=O)[C@H]([C@H](O)[C@@H](O)c2ccc(O)cc2)NC(=O)[C@@H]2C[C@@H](O)CN2C(=O)[C@H]([C@@H](C)O)NC1=O [Pneumocandin B0] ({Tetradecanoyl(10R,12S-Me2)}-[Orn(4R-OH,5R-OH)]T[Hyp][hTyr(3S-OH,4S-OH)][Gln(3R-OH)][Pro(3S-OH)]; lactam 1-C)
TMR-cC0-C2; initial screen, 30 μM compound
  532-nm Δτ, Repeat 1: 0.179 ns
  532-nm Δτ, Repeat 2: 0.149 ns
TMR-cC0-C2; [2]
  532-nm z-score (based on avg Δτ): 10.04
[1]; initial screen, 30 μM compound
  473-nm Δτ, Repeat 1: -0.050 ns
  473-nm Δτ, Repeat 2: -0.053 ns
[1]; [2]
  473-nm z-score (based on avg Δτ): -2.83
